{"source": "PubChem BioAssay AID1259407", "about": "(Chemical Carcinogenesis Research Information System (CCRIS), 2018)", "tested_on": "CCRIS mutagenicity, Ames/micronucleus/aberration tests", "assay": "CCRIS mutagenicity studies", "conditions": "Test System: AMES SALMONELLA TYPHIMURIUM", "note": "The source made the active and inactive calls. No rule for the calls is given here."}
{"smiles": "CC(C)=CCC1=C(O)c2ccccc2C(=O)C1=O", "values": [{"measurement": "mutagenic call", "setting": "Strain/Indicator: TA97, Metabolic Activation: NONE, Method: PREINCUBATION", "result": "inactive; negative"}, {"measurement": "mutagenic call", "setting": "Strain/Indicator: TA97, Metabolic Activation: RAT, LIVER, S-9, PHENOBARBITAL AND 5,6-BENZOFLAVONE, Method: PREINCUBATION", "result": "inactive; negative"}, {"measurement": "mutagenic call", "setting": "Strain/Indicator: TA98, Metabolic Activation: HAMSTER, LIVER, S-9, AROCLOR 1254, Method: STANDARD PLATE", "result": "inactive; negative"}, {"measurement": "mutagenic call", "setting": "Strain/Indicator: TA98, Metabolic Activation: NONE, Method: PREINCUBATION", "result": "inactive; negative"}, {"measurement": "mutagenic call", "setting": "Strain/Indicator: TA98, Metabolic Activation: NONE, Method: STANDARD PLATE", "result": "inactive; negative"}, {"measurement": "mutagenic call", "setting": "Strain/Indicator: TA98, Metabolic Activation: RAT, LIVER, S-9, AROCLOR 1254, Method: STANDARD PLATE", "result": "inactive; negative"}, {"measurement": "mutagenic call", "setting": "Strain/Indicator: TA98, Metabolic Activation: RAT, LIVER, S-9, PHENOBARBITAL AND 5,6-BENZOFLAVONE, Method: PREINCUBATION", "result": "inactive; negative"}, {"measurement": "mutagenic call", "setting": "Strain/Indicator: TA100, Metabolic Activation: HAMSTER, LIVER, S-9, AROCLOR 1254, Method: STANDARD PLATE", "result": "inactive; negative"}, {"measurement": "mutagenic call", "setting": "Strain/Indicator: TA100, Metabolic Activation: NONE, Method: PREINCUBATION", "result": "inactive; negative"}, {"measurement": "mutagenic call", "setting": "Strain/Indicator: TA100, Metabolic Activation: NONE, Method: STANDARD PLATE", "result": "inactive; negative"}, {"measurement": "mutagenic call", "setting": "Strain/Indicator: TA100, Metabolic Activation: RAT, LIVER, S-9, AROCLOR 1254, Method: STANDARD PLATE", "result": "inactive; negative"}, {"measurement": "mutagenic call", "setting": "Strain/Indicator: TA100, Metabolic Activation: RAT, LIVER, S-9, PHENOBARBITAL AND 5,6-BENZOFLAVONE, Method: PREINCUBATION", "result": "inactive; negative"}, {"measurement": "mutagenic call", "setting": "Strain/Indicator: TA102, Metabolic Activation: NONE, Method: PREINCUBATION", "result": "inactive; negative"}, {"measurement": "mutagenic call", "setting": "Strain/Indicator: TA102, Metabolic Activation: RAT, LIVER, S-9, PHENOBARBITAL AND 5,6-BENZOFLAVONE, Method: PREINCUBATION", "result": "inactive; negative"}, {"measurement": "mutagenic call", "setting": "Strain/Indicator: TA104, Metabolic Activation: NONE, Method: PREINCUBATION", "result": "inactive; negative"}, {"measurement": "mutagenic call", "setting": "Strain/Indicator: TA104, Metabolic Activation: RAT, LIVER, S-9, PHENOBARBITAL AND 5,6-BENZOFLAVONE, Method: PREINCUBATION", "result": "inactive; negative"}, {"measurement": "mutagenic call", "setting": "Strain/Indicator: TA1535, Metabolic Activation: HAMSTER, LIVER, S-9, AROCLOR 1254, Method: STANDARD PLATE", "result": "inactive; negative"}, {"measurement": "mutagenic call", "setting": "Strain/Indicator: TA1535, Metabolic Activation: NONE, Method: PREINCUBATION", "result": "inactive; negative"}, {"measurement": "mutagenic call", "setting": "Strain/Indicator: TA1535, Metabolic Activation: NONE, Method: STANDARD PLATE", "result": "inactive; negative"}, {"measurement": "mutagenic call", "setting": "Strain/Indicator: TA1535, Metabolic Activation: RAT, LIVER, S-9, AROCLOR 1254, Method: STANDARD PLATE", "result": "inactive; negative"}, {"measurement": "mutagenic call", "setting": "Strain/Indicator: TA1535, Metabolic Activation: RAT, LIVER, S-9, PHENOBARBITAL AND 5,6-BENZOFLAVONE, Method: PREINCUBATION", "result": "inactive; negative"}, {"measurement": "mutagenic call", "setting": "Strain/Indicator: TA1537, Metabolic Activation: HAMSTER, LIVER, S-9, AROCLOR 1254, Method: STANDARD PLATE", "result": "inactive; negative"}, {"measurement": "mutagenic call", "setting": "Strain/Indicator: TA1537, Metabolic Activation: NONE, Method: PREINCUBATION", "result": "inactive; negative"}, {"measurement": "mutagenic call", "setting": "Strain/Indicator: TA1537, Metabolic Activation: NONE, Method: STANDARD PLATE", "result": "inactive; negative"}, {"measurement": "mutagenic call", "setting": "Strain/Indicator: TA1537, Metabolic Activation: RAT, LIVER, S-9, AROCLOR 1254, Method: STANDARD PLATE", "result": "inactive; negative"}, {"measurement": "mutagenic call", "setting": "Strain/Indicator: TA1537, Metabolic Activation: RAT, LIVER, S-9, PHENOBARBITAL AND 5,6-BENZOFLAVONE, Method: PREINCUBATION", "result": "inactive; negative"}, {"measurement": "mutagenic call", "setting": "Strain/Indicator: TA1538, Metabolic Activation: HAMSTER, LIVER, S-9, AROCLOR 1254, Method: STANDARD PLATE", "result": "inactive; negative"}, {"measurement": "mutagenic call", "setting": "Strain/Indicator: TA1538, Metabolic Activation: NONE, Method: PREINCUBATION", "result": "inactive; negative"}, {"measurement": "mutagenic call", "setting": "Strain/Indicator: TA1538, Metabolic Activation: NONE, Method: STANDARD PLATE", "result": "inactive; negative"}, {"measurement": "mutagenic call", "setting": "Strain/Indicator: TA1538, Metabolic Activation: RAT, LIVER, S-9, AROCLOR 1254, Method: STANDARD PLATE", "result": "inactive; negative"}, {"measurement": "mutagenic call", "setting": "Strain/Indicator: TA1538, Metabolic Activation: RAT, LIVER, S-9, PHENOBARBITAL AND 5,6-BENZOFLAVONE, Method: PREINCUBATION", "result": "inactive; negative"}, {"measurement": "mutagenic call", "setting": "Strain/Indicator: TA2637, Metabolic Activation: NONE, Method: PREINCUBATION", "result": "inactive; negative"}, {"measurement": "mutagenic call", "setting": "Strain/Indicator: TA2637, Metabolic Activation: RAT, LIVER, S-9, PHENOBARBITAL AND 5,6-BENZOFLAVONE, Method: PREINCUBATION", "result": "inactive; negative"}]}
{"smiles": "Cc1cccc2c1cc1c3c(cccc32)-c2ccccc2-1", "values": [{"measurement": "mutagenic call", "setting": "Strain/Indicator: TA100, Metabolic Activation: RAT, LIVER, S-9, AROCLOR 1254", "result": "active; positive"}]}
